Experimental findings from patent US20210189341A1, “PLATELET DIAGNOSTIC IMAGING AGENTS” (Cellphire, Inc., priority 2019, published 2021) are described below.

Peptide text beside a SMILES is read from it.

Assay [1] has as its system platelets. As to the kind of experiment: Flow cytometry of FITC-TAT loading into platelets in the presence of platelet anti-aggregation compounds. Format: cell-based. The following applies: 100 μM FITC-TAT, 60 minutes, loading buffer, 37° C. As for the experimental part: FIG. 3 is a flow cytometry histogram of samples incubated with 100 μM FITC-TAT in the presence of platelet anti-aggregation compounds PGE1, GR144053, and eptifibatide.
Re-suspend platelets in loading buffer (Table 1) or desired incubation solution at a concentration of 500,000 platelets/μL and incubate at 37° C. with low frequency agitation on a rocker for up to 3 hours.
Wash platelets with loading buffer (Table 1) 3× to remove unloaded agents (e.g., FITC-TAT, FITC-labeled magnetic nanoparticles) and use the remaining sample for plate reader, flow cytometer, and/or microscope analysis.
The results for the above formulation are provided herein. A Tecan Infinite M200 Pro plate reader was used for quantification of MRI agent loading. A Novocyte flow cytometer was used to determine both MRI agent loading and percent of platelets effectively loaded. An Olympus microscope was used to visualize the loading into platelets.
Negative controls included 0 μM FITC-TAT in loading buffer and 50 μM fluorescein in loading buffer. All samples were incubated in loading buffer at 37° C. with low frequency agitation on a rocker.

Assay [2] has as its system platelets (400 K/μL). The assay is described as follows: Magnetic resonance imaging of loaded platelet samples. Conditions: positive control. From the text:
FIGS. 9A-B show a schematic (FIG. 9A) and magnetic resonance imaging (FIG. 9B).
FIGS. 9A-B show a schematic (FIG. 9A) and magnetic resonance imaging (FIG. 9B). […] Sample 1A included loading buffer and platelets (400 K/μL), sample 1B included loading buffer alone, sample 2A included loading buffer, Gd-DOTA-CPP-FITC, and platelets (400 K/μL), and sample 2B included loading buffer and Gd-DOTA-FITC-CPP only (washed) as another negative control.

Regarding `N=C(N)NCCCC[C@@H]1NC(=O)CCSSC[C@@H](C(N)=O)NC(=O)[C@@H]2CCCN2C(=O)[C@H](Cc2c[nH]c3ccccc23)NC(=O)[C@H](CC(=O)O)NC(=O)CNC1=O` [eptifibatide] (HELM PEPTIDE1{[O=C(CCS[*:3])[*:2]].[N=C(N)NCCCC[C@H](N[*:1])C(=O)[*:2]].G.D.W.P.C.[am]}$PEPTIDE1,PEPTIDE1,1:R3-7:R3$$$V2.0), the “effect of anti-aggregation compound on platelet loading / distribution of FITC-CPP (flow cytometry histogram)” value in assay [1] is listed as “little to no effect”.

For the compound `[Cl][Gd]([Cl])[Cl]` [GdCl3], the “detection by magnetic resonance imaging” value in assay [2] (100 μM) and in assay [2] (100 mM) was “detection” in each case.

For `Cl.Cl.Cl.N=C(N)c1ccc(N2CCN(C3CCN(CC(=O)O)CC3)CC2)cc1` [GR144053], in assay [1], the “effect of anti-aggregation compound on platelet loading / distribution of FITC-CPP (flow cytometry histogram)” value is recorded as “little to no effect”.

For the compound `CCCCC[C@H](O)/C=C/[C@H]1[C@H](O)CC(=O)[C@@H]1CCCCCCC(=O)O` [PGE1, Prostaglandin E1], the “effect of anti-aggregation compound on platelet loading / distribution of FITC-CPP (flow cytometry histogram)” value in assay [1] is on record as “improved platelet loading”.
